Patent US20240254119A1 (THIRD HARMONIC BIO, INC., priority 2022, published 2024)

molecular target: T1, wtKIT (Homo sapiens, UniProt P10721); assay: HTRF biochemical assay, wtKIT (phosphorylation of a peptide substrate); details: Table 4
T1 construct: 1888289AM in the reaction mixtures
Protocol: Exemplary compounds were tested for ability to inhibit the phosphorylation of a peptide substrate by the tyrosine kinase wt KIT, PDGFRα, or CSF-1R. Assay procedures and results are described below.
Enzyme, substrate, and cofactors (ATP and Mn^2+) are combined in a well of a microtiter plate and incubated for 3 hours at 25° C. At the end of the incubation, the reaction is quenched by the addition of an EDTA-containing buffer.
The substrate used in the CSF-1R and PDGFRα assay is FAM-[…]-CONH2 (FAM is carboxyfluorescein). Peptide should be >95% purity. The substrate for the KIT assay is FAM-[…]-NH2.
• 1. To a well of a 384-wellplate add 5 μL of 2× enzyme buffer (or control). • 2. Add 100 nL of 100× compound. Enzyme and compound may be pre-incubated at this time if desired. • 3. Add 5 μL of 2× substrate buffer. • 4. Incubate plate at 25° C. for 3 hours. • 5. Add 10 uL of anti-phosphotyrosine antibody buffer. • 6. Read plate in BioTek Synergy Reader. Reaction Conditions for wtKIT Assay
• 100 mM HEPES, pH 7.5 0.1% BSA • 0.01% Triton x-100 • 1 mM DTT • 10 mM MnCl2 • 10 μM Sodium Orthovanadate • 10 μM Beta-Glycerophosphate • 400 μM ATP • 1% DMSO (from compound) • 1 μM FAM-[…]-CONH2, 5.0 nM wtKIT Enzyme (1888289AM)* • *Specific activity may vary from lot to lot. Enzyme concentration may need to be adjusted to yield 10-20% conversion of substrate to product.

T1 sequence (P10721 26-976): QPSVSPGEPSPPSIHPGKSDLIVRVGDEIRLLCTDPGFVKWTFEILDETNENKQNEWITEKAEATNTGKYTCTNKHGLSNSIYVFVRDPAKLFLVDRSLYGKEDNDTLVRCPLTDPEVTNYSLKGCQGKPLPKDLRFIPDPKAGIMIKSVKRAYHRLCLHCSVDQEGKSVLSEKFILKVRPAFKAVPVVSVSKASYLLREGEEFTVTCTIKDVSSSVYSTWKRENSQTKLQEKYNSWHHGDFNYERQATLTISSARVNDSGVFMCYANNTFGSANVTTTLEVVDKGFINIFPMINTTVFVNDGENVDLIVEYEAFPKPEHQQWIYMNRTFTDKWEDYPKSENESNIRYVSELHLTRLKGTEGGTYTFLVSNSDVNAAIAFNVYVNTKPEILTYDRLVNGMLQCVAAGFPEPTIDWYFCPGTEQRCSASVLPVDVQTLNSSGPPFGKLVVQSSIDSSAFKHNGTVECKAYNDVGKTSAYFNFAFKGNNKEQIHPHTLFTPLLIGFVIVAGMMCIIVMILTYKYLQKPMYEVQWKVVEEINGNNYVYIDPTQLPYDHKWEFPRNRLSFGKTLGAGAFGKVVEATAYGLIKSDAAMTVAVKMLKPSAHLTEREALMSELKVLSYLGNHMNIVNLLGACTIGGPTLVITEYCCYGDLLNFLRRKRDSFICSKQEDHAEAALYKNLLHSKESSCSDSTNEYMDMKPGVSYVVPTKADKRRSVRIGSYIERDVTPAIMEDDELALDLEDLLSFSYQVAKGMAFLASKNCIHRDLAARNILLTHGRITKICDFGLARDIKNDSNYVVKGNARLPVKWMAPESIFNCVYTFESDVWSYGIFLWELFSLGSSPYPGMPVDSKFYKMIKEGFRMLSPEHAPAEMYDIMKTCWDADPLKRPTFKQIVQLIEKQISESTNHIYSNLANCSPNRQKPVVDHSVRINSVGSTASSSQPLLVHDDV

IC50 [nM]	SMILES
≤ 50	Cc1ccc(-c2noc([C@H]3C[C@@H]3F)n2)cc1NC(=O)c1cnc2cc(COC[C@@H](O)C(F)F)ccn12 [Compound I-500, 7-(((R)-3,3-difluoro-2-hydroxypropoxy)methyl)-N-(5-(5-((1R,2S)-2-fluorocyclopropyl)-1,2,4-oxadiazol-3-yl)-2-methylphenyl)imidazo[1,2-a]pyridine-3-carboxamide]
≤ 50	Cc1ccc(-c2noc([C@H]3C[C@@H]3F)n2)cc1NC(=O)c1cnc2cc(COC[C@H](O)C(F)F)ccn12 [Compound I-501, 7-(((S)-3,3-difluoro-2-hydroxypropoxy)methyl)-N-(5-(5-((1R,2S)-2-fluorocyclopropyl)-1,2,4-oxadiazol-3-yl)-2-methylphenyl)imidazo[1,2-a]pyridine-3-carboxamide]
≤ 50	Cc1ccc(-c2noc([C@H]3C[C@@H]3F)n2)cc1NC(=O)c1cnn2cc(CCOCCO)ccc12 [Compound I-503, N-(5-(5-((1R,2S)-2-fluorocyclopropyl)-1,2,4-oxadiazol-3-yl)-2-methylphenyl)-6-(2-(2-hydroxyethoxy)ethyl)pyrazolo[1,5-a]pyridine-3-carboxamide]
≤ 50	Cc1ccc(-c2noc([C@H]3C[C@@H]3F)n2)cc1NC(=O)c1cnc2cc(C/C=C/OCCO)ccn12 [Compound I-506, N-[5-[5-[(1R,2S)-2-fluorocyclopropyl]-1,2,4-oxadiazol-3-yl]-2-methyl-phenyl]-7-[(E)-3-(2-hydroxyethoxy)allyl]imidazo[1,2-a]pyridine-3-carboxamide]
≤ 50	Cc1ccc(-c2noc(CC(O)c3ccccc3)n2)cc1NC(=O)c1cnc2ccccn12 (stereo not drawn) [Compound I-517, N-(5-(5-(2-hydroxy-2-phenylethyl)-1,2,4-oxadiazol-3-yl)-2-methylphenyl)imidazo[1,2-a]pyridine-3-carboxamide]
≤ 50	Cc1ccc(-c2noc(C3CC(F)(F)C3)n2)cc1NC(=O)c1cnn2ccccc12 [Compound I-518, methyl N-(5-(5-(3,3-difluorocyclobutyl)-1,2,4-oxadiazol-3-yl)-2-methylphenyl)pyrazolo[1,5-a]pyridine-3-carboxamide]
≤ 50	Cc1ccc(-c2noc(CC(O)C(C)(C)C)n2)cc1NC(=O)c1cnc2ccccn12 (stereo not drawn) [Compound I-519]
≤ 50	Cc1ccc(-c2noc(C3CC(F)(F)C3)n2)cc1NC(=O)c1cnc2cc(COCC(C)(C)O)ccn12 [Compound I-521, N-(5-(5-(3,3-difluorocyclobutyl)-1,2,4-oxadiazol-3-yl)-2-methylphenyl)-7-((2-hydroxy-2-methylpropoxy)methyl)imidazo[1,2-a]pyridine-3-carboxamide]
≤ 50	Cc1ccc(-c2noc(CC(O)C(C)C)n2)cc1NC(=O)c1cnc2ccccn12 (stereo not drawn) [Compound I-525, N-(5-(5-(2-hydroxy-3-methylbutyl)-1,2,4-oxadiazol-3-yl)-2-methylphenyl)imidazo[1,2-a]pyridine-3-carboxamide]
≤ 50	CCC(O)Cc1nc(-c2ccc(C)c(NC(=O)c3cnc4ccccn34)c2)no1 (stereo not drawn) [Compound I-526]
50 to 500	COCC(O)Cc1nc(-c2ccc(C)c(NC(=O)c3cnc4ccccn34)c2)no1 (stereo not drawn) [Compound I-528]
≤ 50	Cc1ccc(-c2noc([C@H]3C[C@@H]3F)n2)cc1NC(=O)c1cnc2cc(-c3ccn(C)n3)ccn12 [Compound I-529, N-(5-(5-((1R,2S)-2-fluorocyclopropyl)-1,2,4-oxadiazol-3-yl)-2-methylphenyl)-7-(1-methyl-1H-pyrazol-3-yl)imidazo[1,2-a]pyridine-3-carboxamide]
≤ 50	Cc1nc(-c2ccc(C)c(NC(=O)c3cnc4cc(-c5ccn(C)n5)ccn34)c2)no1 [Compound I-530, 7-(1-methyl-1H-pyrazol-3-yl)-N-(2-methyl-5-(5-methyl-1,2,4-oxadiazol-3-yl)phenyl)imidazo[1,2-a]pyridine-3-carboxamide]
≤ 50	Cc1ccc(-c2noc([C@H]3C[C@@H]3F)n2)cc1NC(=O)c1cnc2ccc(-c3ccn(C)n3)cn12 [Compound I-531, N-(5-(5-((1R,2S)-2-fluorocyclopropyl)-1,2,4-oxadiazol-3-yl)-2-methylphenyl)-6-(1-methyl-1H-pyrazol-3-yl)imidazo[1,2-a]pyridine-3-carboxamide]
≤ 50	Cc1nc(-c2ccc(C)c(NC(=O)c3cnc4ccc(-c5ccn(C)n5)cn34)c2)no1 [Compound I-532, 6-(1-methyl-1H-pyrazol-3-yl)-N-(2-methyl-5-(5-methyl-1,2,4-oxadiazol-3-yl)phenyl)imidazo[1,2-a]pyridine-3-carboxamide]
≤ 50	COc1ccn2c(C(=O)Nc3cc(-c4noc(C)n4)ccc3C)cnc2c1 [Compound I-533, 7-methoxy-N-(2-methyl-5-(5-methyl-1,2,4-oxadiazol-3-yl)phenyl)imidazo[1,2-a]pyridine-3-carboxamide]
≤ 50	Cc1nc(-c2ccc(C)c(NC(=O)c3cnn4cc(-c5ccn(C)n5)ccc34)c2)no1 [Compound I-535, 6-(1-methyl-1H-pyrazol-3-yl)-N-(2-methyl-5-(5-methyl-1,2,4-oxadiazol-3-yl)phenyl)pyrazolo[1,5-a]pyridine-3-carboxamide]
≤ 50	COc1ccn2c(C(=O)Nc3cc(-c4noc(-c5ccccn5)n4)ccc3C)cnc2c1 [Compound I-536, 7-methoxy-N-(2-methyl-5-(5-(pyridin-2-yl)-1,2,4-oxadiazol-3-yl)phenyl)imidazo[1,2-a]pyridine-3-carboxamide]
≤ 50	COc1ccn2c(C(=O)Nc3cc(-c4noc(Cc5ccc(C)cc5)n4)ccc3C)cnc2c1 [Compound I-537, 7-methoxy-N-(2-methyl-5-(5-(4-methylbenzyl)-1,2,4-oxadiazol-3-yl)phenyl)imidazo[1,2-a]pyridine-3-carboxamide]
50 to 500	Cc1ccc(-c2noc(C3CC(O)(C(F)F)C3)n2)cc1NC(=O)c1cnc2ccccn12 (stereo not drawn) [Compound I-538]
≤ 50	Cc1ccn2c(C(=O)Nc3cc(-c4noc(C5CCCCC5)n4)ccc3C)cnc2c1 [Compound I-539]
≤ 50	Cc1ccn2c(C(=O)Nc3cc(-c4noc(C5CCC(F)(F)CC5)n4)ccc3C)cnc2c1 [Compound I-540, 4 N-(5-(5-(4,4-difluorocyclohexyl)-1,2,4-oxadiazol-3-yl)-2-methylphenyl)-7-methylimidazo[1,2-a]pyridine-3-carboxamide]
≤ 50	Cc1ccc(-c2noc([C@H]3C[C@@H]3F)n2)cc1NC(=O)c1cnc2ccc(-c3cscn3)cn12 [Compound I-541, N-(5-(5-((1R,2S)-2-fluorocyclopropyl)-1,2,4-oxadiazol-3-yl)-2-methylphenyl)-6-(thiazol-4-yl)imidazo[1,2-a]pyridine-3-carboxamide]
≤ 50	Cc1nc(-c2ccc(C)c(NC(=O)c3cnc4ccc(-c5cscn5)cn34)c2)no1 [Compound I-542, N-(2-methyl-5-(5-methyl-1,2,4-oxadiazol-3-yl)phenyl)-6-(thiazol-4-yl)imidazo[1,2-a]pyridine-3-carboxamide]
50 to 500	Cc1ccc(-c2noc(CC(O)CN3CCOCC3)n2)cc1NC(=O)c1cnc2ccccn12 (stereo not drawn) [Compound I-543]
50 to 500	Cc1ccc(-c2nc(-c3ccc(C)c(NC(=O)c4cnc5cc(C)ccn45)c3)no2)nc1 [Compound I-544]
50 to 500	Cc1ccn2c(C(=O)Nc3cc(-c4noc(-c5ccnnc5)n4)ccc3C)cnc2c1 [Compound I-546]
